These results are taken from patent US11814402B2, “Binuclear palladacycles and their use in the treatment of cancer” (Stellenbosch University, priority 2019, dated 2023).

Data set [1] has as its system human breast adenocarcinoma MCF-7 (estrogen receptor positive) cells. As to the kind of experiment: Cytotoxicity (MTT) assay, MCF-7. It counts as cell-based. Particulars: 48 hours treatment. How it is done:
(§1) These included cell viability tests using a MTT assay, and in some cases Western blots to test for DNA damage using γ-H2AX and PARP cleavage to determine whether or not apoptosis takes place.
The complex solutions were prepared by dissolution in DMSO to obtain 5 mM stock solutions. Solutions were stored at room temperature for no more than a week. […] The 3-(4,5-dimethylthiazol-2-yl)-2,5-diphenyltetrazolium bromide (MTT) assay was then used, as described by the manufacturer's instructions: 10 μL of MTT solution was added to each well. Well plates were then incubated at 37° C. for 4 h. This was followed by addition of 100 μL solubilisation buffer (10% SDS in 0.01 M HCl) and incubation overnight at 37° C. Absorbance at 585 nm was then determined for each well and the mean cell viability was calculated as a percentage of the mean vehicle control. The experiments were performed in triplicate and the data were used to determine the half maximal inhibitory concentration values (IC50).

The test system of data set [2] is human breast adenocarcinoma MDA-MB-231 (estrogen receptor negative) cells. As to the kind of experiment: Cytotoxicity (MTT) assay, MDA-MB-231. It counts as cell-based. The conditions noted are these: 48 hours treatment. How it is done:
as §1
The complex solutions were prepared by dissolution in DMSO to obtain 5 mM stock solutions. Solutions were stored at room temperature for no more than a week. […] After 48 hours, the cells were treated with various concentrations of complex (0-1 μM) or the vehicle for 48 hours. The 3-(4,5-dimethylthiazol-2-yl)-2,5-diphenyltetrazolium bromide (MTT) assay was then used, as described by the manufacturer's instructions: 10 μL of MTT solution was added to each well. Well plates were then incubated at 37° C. for 4 h. This was followed by addition of 100 μL solubilisation buffer (10% SDS in 0.01 M HCl) and incubation overnight at 37° C. Absorbance at 585 nm was then determined for each well and the mean cell viability was calculated as a percentage of the mean vehicle control. The experiments were performed in triplicate and the data were used to determine the half maximal inhibitory concentration values (IC50).

Data set [3] is described as follows: Turbidimetric assay - solubility in 10% DMSO:PBS. In kind it is physicochemical. Particulars: for aqueous solubility (in words): aqueous media. How it is done:
A 0.01 M pH 7.4 Phosphate Buffered Saline (PBS) solution was prepared by dissolving one PBS tablet (Sigma-Aldrich) in 200 mL distilled water at 25° C. to yield a buffered solution containing 0.01 M phosphate buffer, 0.003 M KCl and 0.14 M NaCl. The solution equilibrated at 25° C. for one hour upon which the pH was confirmed.
A preparation plate (96-well flat bottomed) was prepared by serially diluting the compound to achieve the desired concentrations (5.0 μM to 200 μM). The test plate was prepared by pipetting […] into wells 7-12. Each compound was tested in triplicate thus a single plate could be used to evaluate two compounds. […] of each compound concentration was pipetted from the preparation plate into the test plate to bring the total volume up to 200 μL and to ensure that a 10% (v/v) DMSO/PBS solution is achieved. Test plates were prepared in duplicate and one plate was incubated at room temperature (25° C.) and the second at physiological temperature (37° C.). Both test plates were incubated for 2 hours upon which the UV-Vis absorbance readings were measured at 620 nm. The corrected absorbance readings were obtained by subtracting the blank readings from each concentration absorbance.

Data set [4] is described as follows: Solubility in DMSO and DMSO/water (characterisation data). The conditions noted are these: for behaviour on addition of water / aqueous medium: test medium; for Solubility: DMSO: in DMSO.
The test system of data set [5] is MCF 7 breast cancer cell line tumour. Kind of data set: In vivo anti-tumour activity, MCF 7 (chick embryo model). Here is the method:
(§2) The activity of BTC2 was evaluated in two breast cancer cell lines (MCF 7 and MDA-MB-231). The latter is an aggressive, metastatic cell line in which metastasis is often difficult to prevent or control.
(§3) Metastasis is the process of the spreading of the cancer from its site of origin to other parts of the body. This was evaluated using the same chick embryo model as mentioned above, and again compared to the known drug, paclitaxel.

A further data set deals with γ-H2AX in MCF7 cells. Kind of data set: Western blot, γ-H2AX (DNA damage). In kind it is cell-based, human. The conditions noted are these: treatment for 24 and 48 hours. How it is done: The complex solutions were prepared by dissolution in DMSO to obtain 0.1 and 0.2 μM stock solutions. Solutions were stored at room temperature for no more than a week. Human MCF7 breast adenocarcinoma cells in RPMI 1640 medium were plated in 6 cm petri dishes at 6×10^5 cells per plate. The cells were treated with the complex solutions for 24 or 48 hours. Cells were then lysed using whole cell lysis buffer (0.5 M tris-HCl, pH 6.8, 2% SDS, 10% glycerol, 1% β-mercaptoethanol and 0.02% bromophenol blue). Samples were boiled for 10 minutes. The proteins were resolved using SDS/PAGE (8-15% gels) as required. They were then transferred to Hybond ECL membranes which were then incubated with primary antibodies against PARP ½ (sc-7150), phospho-H2AX (#2577) and p38 (M000). Thereafter, the membranes were incubated with HRP-conjugated secondary antibodies (1:5000). The antibody-reactive proteins were visualised with a chemiluminescence reaction (ECL) detection system.
The most important proteins which are employed as markers for potential anti-cancer drugs are γ-H2AX, which, if present, is an indication of DNA damage and PARP, which if cleaved, is an indication that apoptosis has been induced. In order to allow for relative quantification of the proteins being detected, a loading control, P38, was used to ensure that loading discrepancies are not interpreted as drug-induced changes.
In general terms: In western blotting, separated proteins are transferred to a membrane and probed.

The subject of data set [6] is MDA-MB-231 breast cancer cell line tumour. Kind of data set: In vivo anti-tumour activity, MDA-MB-231 (chick embryo model). The conditions noted are these: MDA-MB-231, about half the concentration of paclitaxel. Here is the method:
as §2
Again, BTC2 was used at about half the concentration of the control, paclitaxel.
as §3

In data set [7] the test system is MDA-MB 231 breast cancer cell line metastasis. As to the kind of experiment: Metastasis reduction, MDA-MB 231 (chick embryo model). It counts as in vivo. How it is done: The ability of BTC2 to prevent metastasis was also evaluated.
as §3
When tested in the aggressive breast cancer cell line, MDA-MB 231, BTC2 was able to induce a 46% reduction in metastasis compared to 64% reduction for paclitaxel.

A further data set concerns WM1158 melanoma cells. The conditions noted are these: Biochem. Pharmacol. 2013, 86, 1650; read-out: IC50 proliferation WM1158 melanoma cells; cited from earlier work.
The test system of data set [8] is oestrogen receptor positive MCF7 breast cancer cells. The conditions noted are these: prior report on AJ5; read-out: IC50 MCF-7; cited from earlier work.
A further data set concerns ME1402 melanoma cells. The conditions noted are these: Biochem. Pharmacol. 2013, 86, 1650; read-out: IC50 proliferation ME1402 melanoma cells; cited from earlier work.
Data set [9] deals with oestrogen receptor negative MDA-MB-231 breast cancer cells. The conditions noted are these: prior report on AJ5; cited from earlier work.
[10] abbreviates: turbidimetric assay, 10% DMSO:PBS pH 7.4, 37° C., 2 hours incubation.

Usually solubility stands for the concentration that dissolves in the medium under given conditions. Lower therefore signals a poorly soluble substance.

Turning to `CC(C)c1cccc(C(C)C)c1[N+]1=Cc2cccc[c]2[Pd-2]1([Cl])[P+](c1ccccc1)(c1ccccc1)[c-]1cccc1.CC(C)c1cccc(C(C)C)c1[N+]1=Cc2cccc[c]2[Pd-2]1([Cl])[P+](c1ccccc1)(c1ccccc1)[c-]1cccc1.[Fe+2]` (centres unmarked) [BC4], the “IC50 MCF-7” value in data set [1] is on record as “Inactive”. The “IC50 MDA-MB-231” value in [2] was “Inactive”. In addition, the “Solubility in 10% DMSO:PBS at 37° C.” value in [3] (setting [10]) lay in the range of 13.65 to 27.30 µg/mL. Also, the “behaviour on addition of water / aqueous medium” value in [4] was “completely intolerant of water”.
Take “[(PdCl{4-[2-(2-hydroxyethoxy)ethoxy]}CH═N{2,6-^iPr2-C6H3})2(μ-Ph2P(CH2)2PPh2)] [BTC2]”: the IC50 in [1] stood at 490 ± 20 nM. In data set [5] (MCF 7, concentration 24.5 μM), this compound showed a tumour regression of 21%. In addition, the “γ-H2AX (Western blot)” value in the data set with γ-H2AX in MCF7 cells was “significant amount of γ-H2AX”. This compound came in with an IC50 in data set [2] of 580 ± 12 nM. Also, the “Solubility in 10% DMSO:PBS at 37° C.” value in data set [3] (setting [10]) fell in the range of 28.38 to 56.77 µg/mL. Besides, the “tumour reduction (in words)” value in data set [6] is listed as “able to induce tumour reduction”. In data set [4], the “Solubility: % DMSO in water” value is recorded as 76 % DMSO in water and the “Solubility: DMSO” value is 32600 µg/mL. The reduction in metastasis in data set [7] (MDA-MB 231, 24.4 μM) came out at 46%.
For `CC(C)c1cccc(C(C)C)c1[N+]1=Cc2ccc(OCCO)c[c]2[Pd-2]1([Cl])[P+](CC[P+](c1ccccc1)(c1ccccc1)[Pd-2]1([Cl])[c]2cc(OCCO)ccc2C=[N+]1c1c(C(C)C)cccc1C(C)C)(c1ccccc1)c1ccccc1` (centres unmarked) [BTC5, [(PdCl{4-(2-hydroxyethoxy})CH═N{2,6-^iPr2-C6H3})2(μ-Ph2P(CH2)2PPh2)]], in data set [3] (10% DMSO:phosphate buffered saline, aqueous with cosolvent or surfactant or cyclodextrin, kinetic from dmso stock, turbidimetric assay, 10% DMSO:PBS pH 7.4, 37° C., 2 hours incubation), the solubility at 2 h is 13.3 to 26.6 µg/mL.
As to `CC(C)c1cccc(C(C)C)c1[N+]1=Cc2ccc(OCCOCCO)c[c]2[Pd-2]1([Cl])[P+](c1ccccc1)(c1ccccc1)[c-]1cccc1.CC(C)c1cccc(C(C)C)c1[N+]1=Cc2ccc(OCCOCCO)c[c]2[Pd-2]1([Cl])[P+](c1ccccc1)(c1ccccc1)[c-]1cccc1.[Fe+2]` (centres unmarked) [BTC4, [(PdCl{4-[2-(2-hydroxyethoxy)ethoxy]}CH═N{2,6-^iPr2-C6H3})2(μ-Ph2P(C5H4)Fe(C5H4)PPh2]], the “IC50 MCF-7” value in data set [1] is “Inactive”. Besides, the “IC50 MDA-MB-231” value in [2] is recorded as “Inactive”. The “aqueous solubility (in words)” value in data set [3] is “highly insoluble”. Moreover, in data set [4], the “Solubility: % DMSO in water” value was 98 % DMSO in water, the “Solubility: DMSO” value was 53700 µg/mL and the “behaviour on addition of water / aqueous medium” value is given as “completely intolerant of water”.
Regarding `CC(C)c1cccc(C(C)C)c1[N+]1=Cc2cccc[c]2[Pd-2]1([Cl])[P+](CC[P+](c1ccccc1)(c1ccccc1)[Pd-2]1([Cl])[c]2ccccc2C=[N+]1c1c(C(C)C)cccc1C(C)C)(c1ccccc1)c1ccccc1` (centres unmarked) [AJ5], the IC50 in the data set with WM1158 melanoma cells was 200 nM; in data set [8], 175 nM; in data set [1], 180 ± 48 nM; in data set [2], 190 ± 15 nM; in the data set with ME1402 melanoma cells, 190 nM; in data set [9], 193 nM. Moreover, the “aqueous solubility (in words)” value in [3] is “poor solubility”. For the same compound, the “Solubility in 10% DMSO:PBS at 37° C.” value in [3] (setting [10]) was 5.98 to 11.97 µg/mL.
As for `CC(C)c1cccc(C(C)C)c1[N+]1=Cc2cccc[c]2[Pd-2]1([Cl])[P+](C[P+](c1ccccc1)(c1ccccc1)[Pd-2]1([Cl])[c]2ccccc2C=[N+]1c1c(C(C)C)cccc1C(C)C)(c1ccccc1)c1ccccc1` (centres unmarked) [BC1], the IC50 stood at 2700 ± 210 nM in data set [1] and 2200 ± 190 nM in data set [2]. Further, in data set [3] (setting [10]), the “Solubility in 10% DMSO:PBS at 37° C.” value was 10.21 to 20.41 µg/mL.
`CC(=O)O[C@H]1C(=O)[C@@]2(C)[C@H]([C@H](OC(=O)c3ccccc3)[C@]3(O)C[C@H](OC(=O)[C@H](O)[C@@H](NC(=O)c4ccccc4)c4ccccc4)C(C)=C1C3(C)C)[C@]1(OC(C)=O)CO[C@@H]1C[C@@H]2O` [paclitaxel]: the tumour regression in data set [5] (MCF 7, concentration 50 μM) was 26%. The reduction in metastasis in [7] (MDA-MB 231, 50 μM) was found to be 64%.
“[(PdCl{4-[2-(2-hydroxyethoxy)ethoxy]}CH═N{2,6-^iPr2-C6H3})2(μ-Ph2P(CH2)3PPh2)] [BTC3]”: the values for the IC50 in data set [1] and in data set [2] were 2500 ± 260 nM and 2300 ± 190 nM, respectively.
For `CC(C)c1cccc(C(C)C)c1[N+]1=Cc2cccc[c]2[Pd-2]1([Cl])[P+](CCC[P+](c1ccccc1)(c1ccccc1)[Pd-2]1([Cl])[c]2ccccc2C=[N+]1c1c(C(C)C)cccc1C(C)C)(c1ccccc1)c1ccccc1` (centres unmarked) [BC3], the values for the IC50 in data set [1] and in data set [2] were 5800 ± 280 nM and 5000 ± 75 nM, respectively. Moreover, the “Solubility in 10% DMSO:PBS at 37° C.” value in [3] (setting [10]) fell in the range of 6.12 to 12.25 µg/mL.
